Reference: ChEMBL document CHEMBL1156374, “Pestalone, a new antibiotic produced by a marine fungus in response to bacterial challenge” (2001)
In brackets after ≈: the same amount, converted by molar mass.

Assays:
Format in all cases: functional
[1] = tested on: Staphylococcus aureus; test: Antibacterial activity against methicillin-resistant Staphylococcus aureus
[2] = tested on: Enterococcus faecium; test: Antibacterial activity against vancomycin-resistant Enterococcus faecium
[3] = Cytotoxicity against human NCI60 cells

## COc1c(Cl)c(C)c(Cl)c(O)c1C(=O)c1c(C=O)c(O)cc(O)c1CC=C(C)C [PESTALONE]
[1]
  MIC: 0.037 µg/mL (≈ 0.0842 µM)
[2]
  MIC: 0.078 µg/mL (≈ 0.178 µM)
[3]
  GI50: 6 µM
